According to the METLIN SMRT retention time set (Domingo-Almenara et al. 2019):

Experiment: gradient 5% acetonitrile 3 min, to 50% in 2 min, to 85% in 15 min, held 3 min, 100 µL/min
Details: column: Zorbax Extend-C18 2.1 x 50 mm; eluents: water / acetonitrile, 0.1% formic acid
How it was run: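 Values are retention times taken from adduct peaks that software picked and an analyst inspected. The pure standards were run as mixtures of ~100 molecules on HPLC linked to a quadrupole time-of-flight mass spectrometer, in positive and negative ionization mode. A Zorbax Extend-C18 column (2.1 × 50 mm, 1.8 μm) was used at 100 μL/min with water and acetonitrile, each including 0.1% formic acid.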

| SMILES | RP-LC retention time [s] |
| --- | --- |
| CCOc1ccc(C(=O)N2CCN(c3nc(CN4CCOCC4)cs3)CC2)cc1 | 615 |
| COc1ccccc1CNc1ncnc(N)c1[N+](=O)[O-] | 735 |
| O=C(NC1CCCC1)C1CC(=O)N(CCc2c[nH]c3ccc(Cl)cc23)C1 (stereo unspecified) | 769 |
| CCOCCCNC(=O)c1ccc(-c2ccc3c(c2)CCN3C(C)=O)cc1 | 598 |
| CCNC(=O)c1sc(Nc2cccc(C)n2)nc1C | 657 |
| CCc1nn2c(CNS(=O)(=O)c3ccc(C)cc3)c(-c3ccccc3)nc2s1 | 973 |
| CC(C)NC(=O)N1CCCC(Cn2c(C3CC3)nc3cccnc32)C1 (stereo unspecified) | 604 |
| Cc1ccc(-n2c(=O)n(CC(=O)N3CCCCC3)c3cccnc32)cc1 | 780 |
| O=C(c1cc(C2CC2)[nH]n1)N1CCC(Cc2ccccc2)CC1 | 902 |
| Cc1oc(C2CCN(S(=O)(=O)c3ccc(C#N)cc3)CC2)nc1C(=O)N(C)C | 762 |
| Cc1cc(=O)n(CC(=O)Nc2ccccc2F)c(N2CCCC2)n1 | 616 |
| Cc1ccc(C)c(-c2csc(NC(=O)CCC(=O)O)n2)c1 | 781 |
| CCN(Cc1ccccc1)C(=O)Cn1cc2c(n1)CCCCCC2 | 1020 |
| Cc1cnc(-c2ccncc2)n1CC1CN(S(=O)(=O)C(C)C)C1 | 573 |
| O=C(Cn1c(=O)c(CCC(=O)NC2CCCC2)nc2ccccc21)Nc1ccc(F)c(Cl)c1 | 672 |
| Cn1c(=O)n(CC(=O)N2CCc3ccccc3C2)c(=O)c2cnc(-c3ccc(Cl)cc3)nc21 | 1140 |
| Cc1ccn2c(NC(=O)c3ccc(Cl)c([N+](=O)[O-])c3)c(-c3ccccc3)nc2c1 | 700 |
| COc1ccccc1C(=O)Nc1nc(-c2ccc3c(c2)NC(=O)C(C)O3)cs1 (stereo unspecified) | 924 |
| Nc1cc(C2CCN(C(=O)c3cc4ccccc4[nH]3)CC2)no1 | 713 |
| CCC(CC)NC(=O)C1CCCCc2nnc(C(C)C)n21 (stereo unspecified) | 664 |
| COc1ccc(CC(=O)N2CC(c3nc(C)no3)C3(CCOCC3)C2)cc1 (stereo unspecified) | 712 |

| SMILES | RP-LC retention time [s] |
| --- | --- |
| CCCCCc1cc(O)c2c(c1)OC(C)(C)[C@@H]1CCC(C(=O)O)=CC21 (stereo partly specified) | 1130 |
| COC(=O)c1cccc(N2C=C(C#N)S(=O)(=O)c3ccc(Cl)cc32)c1 | 930 |
| Clc1ccc(-c2nc3cnccn3c2Nc2ccc3c(c2)OCO3)cc1 | 930 |
| O=C(Nc1ccc2ncsc2c1)c1cc(Cl)sc1Cl | 852 |
| CCN1c2ccc(C)cc2C(=O)NC12CCN(C(=O)c1ccc(C)cc1)CC2 | 849 |
| CC(=O)N1CCC2(CC1)NC(=O)c1cccc(C)c1O2 | 650 |
| Cc1cc(C)cc(-c2nc(C3CC(=O)N(c4ccc(F)cc4)C3)no2)c1 (stereo unspecified) | 1060 |
| CN(CCc1noc(-c2ccccc2Cl)n1)C(=O)COc1ccccc1 | 900 |
| COc1ccccc1-c1noc(CCc2nnc3ccc(N4CCN(Cc5ccccc5)CC4)nn23)n1 | 616 |
| COC(=O)c1c(NCCc2cccs2)c2cccc(Cl)c2[nH]c1=O | 823 |
| Cc1noc(C)c1S(=O)(=O)N1CCc2c(c(-c3nnc(-c4ccccc4)o3)nn2C)C1 | 880 |
| CC1CN(CC(=O)N2CCN(c3ncccn3)CC2)c2ccccc2S1 (stereo unspecified) | 918 |
| Cc1cc(OCC(O)CN2CCN(C)CC2)ccc1Cl (stereo unspecified) | 558 |
| Cc1ccc(S(=O)(=O)N2C[C@@H](F)C[C@H]2C(=O)N2CCOCC2)c(C)c1 | 740 |
| COCCCn1c(=O)c2ccccc2n(Cc2nc(-c3ccc(C)cc3)no2)c1=O | 1060 |
| CN(C)CCNC(=O)c1ccc(CS(=O)Cc2ccc(Cl)cc2)o1 (stereo unspecified) | 604 |
| COc1ccc(Br)c(CC2C(=O)Nc3ccccc32)c1 (stereo unspecified) | 944 |
| COc1ccc(OC)c(NC(=O)c2noc3c2CCCC3)c1 | 1160 |
| Clc1ccc(-c2nc3ccccn3c2Nc2ccc3c(c2)OCO3)cc1 | 727 |
| Cc1sc(NC(=O)c2ccccc2Cl)nc1-c1ccc2c(c1)NC(=O)C(C)O2 (stereo unspecified) | 914 |
| Cn1cc(-c2noc(-c3cccs3)n2)ccc1=O | 778 |

| SMILES | RP-LC retention time [s] |
| --- | --- |
| Cc1ccc(NC(=O)Cn2ncc3c(c2=O)N(CC2CC2)C(=O)CS3)cc1F | 928 |
| CCCNC(=O)N(C1CCOCC1)C1CCN(C(=O)CCc2c[nH]c3ccccc23)CC1 | 730 |
| Cc1ccc(Cl)cc1NC(=O)C1CCN(S(=O)(=O)c2ccc3c(c2)NC(=O)CO3)CC1 | 786 |
| CCn1ccc(C(=O)Nc2cnc(-c3cccc(Cl)c3)nc2)n1 | 1020 |
| CC(C)C1c2nccn2CCCN1C(=O)Cn1c(=O)oc2ccccc21 (stereo unspecified) | 603 |
| O=C(Cc1ccc(NC(=O)c2cnc3ccccc3n2)cc1)NCC(F)(F)F | 756 |
| O=C(N[C@H]1C[C@@H]2C[C@H]1CN2C(=O)c1ccccc1Cl)c1cccs1 | 701 |
| Cc1ccc2cc(CCC(=O)NCCc3cccnc3)c(=O)[nH]c2c1 | 586 |
| Cc1cc(C)n(-c2ccnc(NCCC3=CCCCC3)n2)n1 | 975 |
| C[C@@H]1CC[C@H]2[C@H](C)[C@H]3CC[C@@]4(O)[C@@H]5CC(=O)[C@H]6CC(=O)CC[C@]6(C)[C@H]5C[C@H]4[C@@H]3CN2C1 | 636 |
| Cc1c(S(=O)(=O)Nc2ccccc2)c(C)n(C)c1-c1nnc(C2CCC2)o1 | 870 |
| Cc1ccccc1-c1nc2ccccc2n1CC(N)=O | 616 |
| COC(=O)c1ccccc1NC(=O)Cc1csc(Nc2ccccn2)n1 | 703 |
| Cc1ccnc(NS(=O)(=O)c2ccc(NC(=O)c3ccc([N+](=O)[O-])s3)cc2)n1 | 699 |
| CS(=O)(=O)c1ccc(-c2cccc(NS(=O)(=O)c3ccc4c(c3)CCCC4)c2)nn1 | 855 |
| CCCC(NC(=O)c1cccc(C)c1)C(=O)Nc1nc2ccccc2[nH]1 (stereo unspecified) | 715 |
| COc1cccc(S(=O)(=O)N2CCOCC2)c1 | 708 |
| COc1ccc(NC(=O)N2CCC3(C2)C(=O)Nc2ccc(OC)cc23)c(OC)c1 (stereo unspecified) | 715 |
| COC(=O)c1c(NCc2cc(F)cc(F)c2)c2cccc(Cl)c2[nH]c1=O | 808 |
| CC(C)Oc1ccc(-c2noc(Cn3c(=O)n(CCc4ccccc4)c(=O)c4sccc43)n2)cc1 | 1230 |
| O=C1N(c2cccc(F)c2)c2ncccc2S(=O)(=O)N1Cc1cccc(F)c1 | 1030 |

The remaining lines, values ahead:

| RP-LC retention time [s] | SMILES |
| --- | --- |
| 590 | O=C(C1CCN(c2nc3cccnc3s2)CC1)N1CCN(c2ccccn2)CC1 |
| 763 | Cc1ccc(NS(=O)(=O)c2ccc3c(c2)CCCC(=O)N3)cc1F |
| 683 | CCN(CC)CCNC(=O)c1nnc(-c2oc3c(C)cccc3c2C)o1 |
| 766 | O=C(NCc1csc(-c2ccccc2)n1)C1CCN(C(=O)Nc2ccccc2)CC1 |
| 721 | Cn1c(N2CCC(C(=O)N3CCN(c4ccc(Cl)cc4)CC3)CC2)cc(=O)n(C)c1=O |
| 618 | COc1ccc(S(=O)(=O)N2CCCn3ccnc3C2c2cnn(C)c2)cc1Cl (stereo unspecified) |
| 826 | COc1cccc(CNC2=NCCNC23CCN(S(=O)(=O)c2c(C)cc(C)cc2C)CC3)c1 |
| 644 | CC(C)(CO)NCc1ccc(-c2ccc(F)c(Cl)c2)o1 |
| 1150 | CCOc1ccc(-c2cc3c(=O)n(Cc4nc(-c5ccccc5Cl)no4)ncn3n2)cc1 |
| 848 | O=C(NCC1CC1)c1cn(-c2cc(-c3nc(C4CC4)no3)ccn2)cn1 |
| 697 | O=C(NCCc1ccco1)C1CCN(c2nc3cccnc3s2)CC1 |
| 760 | Cn1c(=O)oc2cc(-c3noc(CNC(=O)Cc4ccccc4)n3)ccc21 |
| 841 | COc1ccc(-c2cn3c(CC(=O)Nc4cccc(C(F)(F)F)c4)csc3n2)cc1OC |
| 887 | COc1cc(NC(=O)c2ccccc2)c(OC)cc1NC(=O)C=C(C)C |
| 578 | COc1ccc(CC(=O)N2CCN(c3cc(C)n4c(C)nnc4n3)CC2)cc1OC |
| 656 | CCCN1C(=O)c2[nH]nc(-c3ccc(OC)cc3)c2C1c1cccnc1 (stereo unspecified) |
| 632 | CC(=O)Nc1ccc2cc3ccc(NC(C)=O)cc3nc2c1 |
| 850 | CCC(C)NC(=O)c1n[nH]c2c1CCCCCC2 (stereo unspecified) |
| 793 | CN(C)c1cc(-n2cnc(C(=O)NCc3cccc(Cl)c3)c2)ncn1 |
| 684 | CCOC(=O)c1cnc2nc(C)ccc2c1Nc1ccc(F)c(C#N)c1 |
| 570 | CC(C)c1nnc(-c2ccc(=O)n(CC(=O)N3CCN(c4ccccn4)CC3)c2)o1 |
| 887 | O=c1n(Cc2cccc(C(F)(F)F)c2)nc2ccc(-c3ccccc3)nn12 |
| 664 | Cn1c(N2CCCN(C(=O)c3ccc(Br)cc3)CC2)cc(=O)n(C)c1=O |
| 969 | CCOC(=O)c1cccc(N2C=C(C#N)S(=O)(=O)c3ccc(C)cc32)c1 |
| 715 | Cc1cc2[nH]c(C(=O)Nc3cc(F)cc(F)c3)c(CN(C)C)c2s1 |
| 831 | Cc1cccc(-c2noc(-c3ccc(N4CCN(C5CCCCC5)CC4)nc3)n2)c1 |
| 572 | CCS(=O)(=O)NCCc1csc(C)n1 |
| 724 | O=C([C@@H]1C[C@H](F)CN1C(=O)c1ccc(Cl)cc1)N1CCCCC1 |
